Values of other authors in patent US20080138409A1, “OLANZAPINE PHARMACEUTICAL COMPOSITION” (priority 2006, published 2008).

Settings: pH 6.8; free base

For `Cc1cc2c(s1)Nc1ccccc1N=C2N1CCN(C)CC1` [Olanzapine], the solubility is given as “about 0.02 mg/ml”.
